# From patent US20110269699A1, “CANCER THERAPY” (priority 2008, published 2011)
# Tests used:
# Format in all cases: cell-based, mouse
# [1] = test system: 226Eμ-myc/Bcl-2 lymphomas; assay: Cell cycle analysis of Eμ-myc/Bcl-2 cells treated with HDACi; details: 226/Bcl-2
# Procedure: (§1) Next, the cell cycle profiles of Eμ-myc/Bcl-2 lymphomas treated with oxamflatin and romidepsin over 3 days were assessed.
# (§2) […] Viability of cells as measured by trypan blue exclusion assay, propidium iodide uptake, Annexin V staining, cell cycle analysis, or tetramethylrhodamine ethyl ester staining were done as described (Lindemann et al., Proc. Nat. Acad. Sci. USA 104:8071-8078, 2007).
# [2] = test system: 4242Eμ-myc/Bcl-2 lymphomas; assay: as above; details: 4242/Bcl-2
# Procedure: as §1, §2
# Eμ-myc lymphomas = assay: In vitro cell death analysis (propidium iodide staining, loss of MOMP)
# Procedure: (§3) Three different primary Eμ-myc lymphomas overexpressing Bcl-2 and control vector-transduced Eμ-myc cells were tested for sensitivity to the histone deacetylase inhibitors (HDACi) oxamflatin and romidepsin.
# (§4) The primary function of prosurvival Bcl-2 proteins is to inhibit the activity of Bak and Bax proteins and thereby protect the mitochondrial membrane from damage (Cory et al., Nat. Rev. Cancer 2:647-656, 2002). To determine if the induction of apoptosis mediated by romidepsin in 4242Eμ-myc/Bcl-2 and 229Eμ-myc/Bcl-2 lymphomas was via perturbation of the mitochondrial membrane or through some other mechanism, HDACi-induced mitochondrial outer membrane permeabilization (MOMP) was quantitated by staining with tetramethylrhodamine ethyl ester (Molecular Probes).
# as §2
# Eμ-myc/Bcl-2 lymphomas = assay: as above
# Procedure: as §3, §4, §2
# 4242Eμ-myc lymphomas = assay: In vitro cell death analysis (parental control of the Bcl-XL experiment)
# Procedure: (§5) To determine if increased expression of Bcl-XL could confer resistance to romidepsin, 4242Eμ-myc/Bcl-XL lymphomas were produced and tested for sensitivity to HDACi.
# Eμ-myc lymphoma cells (5×10^5/mL) were incubated in the presence of the indicated compounds for 20 h in 1 mL cell culture medium in 24-well plates (Greiner Bio-One). Viability of cells as measured by trypan blue exclusion assay, propidium iodide uptake, Annexin V staining, cell cycle analysis, or tetramethylrhodamine ethyl ester staining were done as described (Lindemann et al., Proc. Nat. Acad. Sci. USA 104:8071-8078, 2007).
# [3] = test system: 4242Eμ-myc/Bcl-XL lymphomas; assay: In vitro cell death analysis of Bcl-XL overexpressing lymphomas
# From the text: as §5, §2
# [4] = test system: acetylated histones H3 and H4; assay: Western blot analysis of histone acetylation status; details: 4242Eμ-myc lymphomas; 3.0 nmol/L romidepsin, 0.1 mmol/L oxamflatin; 24-h time course
# Procedure: Eμ-myc lymphoma cells were lysed in lysis buffer [0.15 mol/L NaCl, 10 mmol/L Tris-HCl (pH 7.4), 5 μmol/L EDTA, 1% Triton X-100] supplemented with protease inhibitors (leupeptin, pepstatin, and phenylmethylsulfonyl fluoride; Sigma-Aldrich) as described previously (Lindemann et al., Proc. Nat. Acad. Sci. USA 104:8071-8078, 2007). Proteins (30-50 μg) were separated on 10% or 15% SDS polyacrylamide gels electroblotted onto Immobilon-P […] membranes (Millipore). Membranes were incubated with the following antibodies: anti-mouse Bcl-2 (BD PharMingen), anti-mouse Bcl-XL (BD PharMingen), anti-mouse Bcl-w (Chemicon Australia), anti-mouse Mcl-1 (Rockland), anti-mouse A1 (Sapphire Biosciences), anti-Flag tag (Sigma-Aldrich), anti-acetylated histone H3 and antiacetylated histone H4 (Upstate Biosystems), anti-β actin (Sigma-Aldrich), and anti-tubulin (Sigma-Aldrich) overnight at 4° C. followed by subsequent incubation with horseradish peroxidase-conjugated secondary antibodies (DAKO) Immunoreactive bands were visualized by enhanced chemiluminescence (Amersham).
# [5] = increasing concentrations over 24 h
substance,measurement,setting,value
Oxamflatin,% G1,[1]; 24 hr,50.0%
same,% G2/M,[1]; 24 hr,28.8%
same,% S phase,[1]; 24 hr,14.4%
same,% subG1,[1]; 24 hr,2.7%
same,% G1,[1]; 48 hr,62.6%
same,% G2/M,[1]; 48 hr,21.4%
same,% S phase,[1]; 48 hr,10.8%
same,% subG1,[1]; 48 hr,2.6%
same,% G1,[1]; 72 hr,78.2%
same,% G2/M,[1]; 72 hr,12.0%
same,% S phase,[1]; 72 hr,2.5%
same,% subG1,[1]; 72 hr,6.5%
same,% G1,[2]; 24 hr,59.4%
same,% G2/M,[2]; 24 hr,18.0%
same,% S phase,[2]; 24 hr,8.2%
same,% subG1,[2]; 24 hr,8.4%
same,% G1,[2]; 48 hr,62.3%
same,% G2/M,[2]; 48 hr,15.3%
same,% S phase,[2]; 48 hr,8.4%
same,% subG1,[2]; 48 hr,5.9%
same,% G1,[2]; 72 hr,66.7%
same,% G2/M,[2]; 72 hr,15.8%
same,% S phase,[2]; 72 hr,9.7%
same,% subG1,[2]; 72 hr,4.6%
same,"cell killing (outer cell membrane damage, loss of mitochondrial membrane potential)",Eμ-myc lymphomas; 24-h dose-response assay,could effectively kill
same,concentration of HDACi required to kill ˜70% of Eμ-myc lymphomas following 24-h treatment,Eμ-myc lymphomas; 24-h treatment,0.1 µmol/L
same,cell killing in time course,"Eμ-myc/Bcl-2 lymphomas; 0.1 μmol/L, 72 h of continuous exposure",conferred resistance to oxamflatin
same,"cell killing (outer cell membrane damage, loss of mitochondrial membrane potential)","Eμ-myc/Bcl-2 lymphomas; 24-h dose-response assay, Bcl-2 overexpressing",but not Eμ-myc/Bcl-2 lymphomas
same,plasma membrane integrity and mitochondrial function,4242Eμ-myc lymphomas; [5],dose-dependent loss of plasma membrane integrity and mitochondrial function
same,cell cycle analysis: DNA fragmentation,4242Eμ-myc lymphomas; increasing doses,DNA fragmentation occurred
same,cell killing in time course,"4242Eμ-myc lymphomas; parental Eμ-myc lymphomas, within the first 24 h, 3 nmol/L romidepsin or 0.1 μmol/L oxamflatin",effectively killed
same,plasma membrane integrity and mitochondrial function,[3]; [5],unaffected
same,cell cycle analysis,[3]; increasing doses,arrested in the G1 phase
same,acetylation of histones H3 and H4,[4],induced equivalent acetylation of histones H3 and H4
